Test results published in patent US12576050B2, “Dosage regime” (priority 2018, dated 2026).

Key:
[1] = test system: Gram −ve organisms in sputum; test: CARE-CF-1 trial: sputum bacterial load; assay type: in vivo, people with CF; conditions: for Sputum Gram −ve organisms, Day 21 change from baseline, mean: 14 day course; for Sputum Gram −ve organisms, Day 14 LSMD (cysteamine − placebo): MMRM, ITT; for Sputum Gram −ve organisms, D 14 mean: with standard of care
[2] = test system: people with CF experiencing an acute exacerbation; test: CARE-CF-1 trial: PROM CFRSD-CRISS score; assay type: in vivo; conditions: for CFRSD-CRISS score, Day 7 LSMD (cysteamine − placebo) / CFRSD-CRISS score, Day 14 LSMD (cysteamine − placebo): MMRM, ITT
blood leukocytes = test: CARE-CF-1 trial: blood leukocyte count (WCC); assay type: in vivo, people with CF
[3] = test system: people with CF experiencing an acute exacerbation; test: CARE-CF-1 trial: PROM CFQ-R score; assay type: in vivo; conditions: 450 doses, day 14; greatest for 450 BID
[4] = test system: P. aeruginosa isolated from sputum from a CF patient; test: Alginate production by sputum isolates (Alcian Blue assay); assay type: cell-based
Description: Isolate A produced 19.93 μg/ml (+/−1.9 SD) alginate and had mucoid phenotype. Isolate B produced 4.47 μg/ml (+/−2.39 SD) with dry colonies.
Results provided in FIG. 5 were derived from a study that conforms to the general quantitative assay described in J. Phycol. 13, 345-348 (1977) “Alcian Blue: A Quantitative Aqueous Assay for Algal Acid and Sulfated Polysaccharides”; J Ramus.

[5] = test system: P. aeruginosa isolate from CF sputum; test: Kirby Bauer antibiotic disc sensitivity on agar containing cysteamine; assay type: cell-based
Source text: Legend: […], I, R=sensitive, intermediate or resistant by interpretive criteria for antibiotic disc sensitivity testing method against P. aeruginosa. No criteria for sulphonamides against P. aeruginosa, however Bactrim/co-trimoxazole sometimes used in CF therefore included here with interpretive criteria for Stenotrophomonas. *=p<0.05 two-way ANOVA Sidak's multiple comparison test.
As a result, the patient was taken off regimen of ceftolozane+tazobactam, Colomycin and Pulmozyme and put onto 14-day course of cysteamine 450 mg BID (bi-daily) with Tobramycin and Colomycin. Patient was discharged from hospital 3-days later.

CF patient = test: Single patient treated with cysteamine 450 mg bi-daily plus antibiotics; assay type: in vivo; conditions: cysteamine 450 mg BID with Tobramycin and Colomycin, one patient
Description: Patient trialled with combination treatment of 450 mg bi-daily in combination with antibiotics. […] As a result, the patient was taken off regimen of ceftolozane+tazobactam, Colomycin and Pulmozyme and put onto 14-day course of cysteamine 450 mg BID (bi-daily) with Tobramycin and Colomycin. Patient was discharged from hospital 3-days later.

[6] = test system: people with CF experiencing an acute exacerbation; conditions: adjunct to treatment of exacerbations, 14 days

NCCS [Cysteamine, cysteamine]
Sputum Gram −ve organisms, Day 21 change from baseline, mean ([1]; 150 mg TID): −0.26 log10 CFU/ml | Sputum Gram −ve organisms, Day 14 LSMD (cysteamine − placebo) ([1]; 150 mg TID, p 0.9753): 0.03 log10 CFU/ml | Sputum Gram −ve organisms, Day 21 LSMD (cysteamine − placebo) ([1]; 150 mg TID, p 0.9511): 0.05 log10 CFU/ml | Sputum Gram −ve organisms, Day 14 change from baseline, mean ([1]; 150 mg tid): −1.24 log10 CFU/ml | Sputum Gram −ve organisms, D 14 mean ([1]; 150 mg tid for 14 days): 5.08 log10 CFU/ml | Sputum Gram −ve organisms, D 14 Δ −placebo mean ([1]; 150 mg tid, p 0.97): 0.03 log10 CFU/ml | Sputum Gram −ve organisms, Day 21 change from baseline, mean ([1]; 300 mg TID): −0.87 log10 CFU/ml | Sputum Gram −ve organisms, Day 14 LSMD (cysteamine − placebo) ([1]; 300 mg TID, p 0.3683): 0.82 log10 CFU/ml | Sputum Gram −ve organisms, Day 21 LSMD (cysteamine − placebo) ([1]; 300 mg TID, p 0.7802): −0.24 log10 CFU/ml | Sputum Gram −ve organisms, Day 14 change from baseline, mean ([1]; 300 mg tid): −0.98 log10 CFU/ml | Sputum Gram −ve organisms, D 14 mean ([1]; 300 mg tid for 14 days): 6.14 log10 CFU/ml | Sputum Gram −ve organisms, D 14 Δ −placebo mean ([1]; 300 mg tid, p 0.36): 0.87 log10 CFU/ml | Sputum Gram −ve organisms, Day 21 change from baseline, mean ([1]; 450 mg BID): −1.04 log10 CFU/ml | Sputum Gram −ve organisms, Day 14 LSMD (cysteamine − placebo) ([1]; 450 mg BID, p 0.4165): 0.72 log10 CFU/ml | Sputum Gram −ve organisms, Day 21 LSMD (cysteamine − placebo) ([1]; 450 mg BID, p 0.6117): −0.41 log10 CFU/ml | Sputum Gram −ve organisms, Day 21 change from baseline, mean ([1]; 450 mg QD): −1.22 log10 CFU/ml | Sputum Gram −ve organisms, Day 14 LSMD (cysteamine − placebo) ([1]; 450 mg QD, p 0.4445): 0.72 log10 CFU/ml | Sputum Gram −ve organisms, Day 21 LSMD (cysteamine − placebo) ([1]; 450 mg QD, p 0.0799): −1.56 log10 CFU/ml | Sputum Gram −ve organisms, Day 14 LSMD (cysteamine QD/BID − TID) ([1]; 450 mg TDD: 450 mg QD − 150 mg TID): 0.69 log10 CFU/ml | Sputum Gram −ve organisms, Day 21 change from baseline, mean ([1]; 450 mg TID): 0.93 log10 CFU/ml | Sputum Gram −ve organisms, Day 14 LSMD (cysteamine − placebo) ([1]; 450 mg TID, p 0.0602): 1.57 log10 CFU/ml | Sputum Gram −ve organisms, Day 21 LSMD (cysteamine − placebo) ([1]; 450 mg TID, p 0.2130): 0.99 log10 CFU/ml | Sputum Gram −ve organisms, Day 14 change from baseline, mean ([1]; 450 mg bid): −1.32 log10 CFU/ml | Sputum Gram −ve organisms, D 14 mean ([1]; 450 mg bid for 14 days): 6.25 log10 CFU/ml | Sputum Gram −ve organisms, D 14 Δ −placebo mean ([1]; 450 mg bid, p 0.61): 0.46 log10 CFU/ml | Sputum Gram −ve organisms, Day 14 change from baseline, mean ([1]; 450 mg qd): 0.12 log10 CFU/ml | Sputum Gram −ve organisms, D 14 mean ([1]; 450 mg qd for 14 days): 4.49 log10 CFU/ml | Sputum Gram −ve organisms, D 14 Δ −placebo mean ([1]; 450 mg qd, p 0.36): 0.90 log10 CFU/ml | Sputum Gram −ve organisms, Day 14 change from baseline, mean ([1]; 450 mg tid): 0.33 log10 CFU/ml | Sputum Gram −ve organisms, D 14 mean ([1]; 450 mg tid for 14 days): 6.27 log10 CFU/ml | Sputum Gram −ve organisms, D 14 Δ −placebo mean ([1]; 450 mg tid, p 0.059): 1.66 log10 CFU/ml | Sputum Gram −ve organisms, Day 14 LSMD (cysteamine QD/BID − TID) ([1]; 900 mg TDD: 450 mg BID − 300 mg TID): −0.11 log10 CFU/ml | CFRSD-CRISS score, Day 7 change from baseline, mean ([2]; 150 mg TID): −11.9 | CFRSD-CRISS score, Day 7 LSMD (cysteamine − placebo) ([2]; 150 mg TID, p 0.1991): 4.25 | CFRSD-CRISS score, Day 14 LSMD (cysteamine − placebo) ([2]; 150 mg TID, p 0.9098): 0.57 | CFRSD-CRISS score, D 14 mean ([2]; 150 mg tid): 32.4 | CFRSD-CRISS score, Day 14 change from baseline, mean ([2]; 150 mg tid): −15.5 | CFRSD-CRISS score, D 14 Δ −placebo mean ([2]; 150 mg tid, p 0.87): 0.8 | CFRSD-CRISS score, Day 7 change from baseline, mean ([2]; 300 mg TID): −10.5 | CFRSD-CRISS score, Day 7 LSMD (cysteamine − placebo) ([2]; 300 mg TID, p 0.0474): 6.48 | CFRSD-CRISS score, Day 14 LSMD (cysteamine − placebo) ([2]; 300 mg TID, p 0.6439): 2.32 | CFRSD-CRISS score, D 14 mean ([2]; 300 mg tid): 34.2 | CFRSD-CRISS score, Day 14 change from baseline, mean ([2]; 300 mg tid): −14.8 | CFRSD-CRISS score, D 14 Δ −placebo mean ([2]; 300 mg tid, p 0.70): 1.9 | CFRSD-CRISS score, Day 7 change from baseline, mean ([2]; 450 mg BID): −19.1 | CFRSD-CRISS score, Day 14 LSMD (cysteamine − placebo) ([2]; 450 mg BID, p 0.0496): −9.85 | CFRSD-CRISS score, Day 7 LSMD (cysteamine − placebo) ([2]; 450 mg BID, p 0.8081): −0.78 | CFRSD-CRISS score, Day 7 change from baseline, mean ([2]; 450 mg QD): −18.1 | CFRSD-CRISS score, Day 14 LSMD (cysteamine − placebo) ([2]; 450 mg QD, p 0.1814): −7.36 | CFRSD-CRISS score, Day 7 LSMD (cysteamine − placebo) ([2]; 450 mg QD, p 0.7569): −1.10 | CFRSD-CRISS score, Day 14 LSMD (cysteamine QD/BID − TID) ([2]; 450 mg TDD: 450 mg QD − 150 mg TID, p 0.1725): −7.94 | CFRSD-CRISS score, Day 7 change from baseline, mean ([2]; 450 mg TID): −17.8 | CFRSD-CRISS score, Day 14 LSMD (cysteamine − placebo) ([2]; 450 mg TID, p 0.2097): −6.27 | CFRSD-CRISS score, Day 7 LSMD (cysteamine − placebo) ([2]; 450 mg TID, p 0.7324): 1.11 | Improvements in CFRSD-CRISS domains ([2]; 450 mg bi-daily compared with the other doses (FIG. 6)): best improvements | CFRSD-CRISS score, D 14 mean ([2]; 450 mg bid): 25.4 | CFRSD-CRISS score, Day 14 change from baseline, mean ([2]; 450 mg bid): −28.1 | CFRSD-CRISS score, D 14 Δ −placebo mean ([2]; 450 mg bid, p 0.035): −10.6 | CFRSD-CRISS score, D 14 mean ([2]; 450 mg qd): 26.1 | CFRSD-CRISS score, Day 14 change from baseline, mean ([2]; 450 mg qd): −24.3 | CFRSD-CRISS score, D 14 Δ −placebo mean ([2]; 450 mg qd, p 0.090): −9.0 | CFRSD-CRISS score, D 14 mean ([2]; 450 mg tid): 31.6 | CFRSD-CRISS score, Day 14 change from baseline, mean ([2]; 450 mg tid): −23.9 | CFRSD-CRISS score, D 14 Δ −placebo mean ([2]; 450 mg tid, p 0.34): −4.8 | CFRSD-CRISS score, Day 14 LSMD (cysteamine QD/BID − TID) ([2]; 900 mg TDD: 450 mg BID − 300 mg TID, p 0.0222): −12.17 | CRISS score at day 14 compared with standard of care plus placebo ([2]; 450 BID dose): significant improvement over and above placebo | Potentiation of other antibiotics (CRISS, post-hoc) ([2]; 450 BID versus 900 mg as 3 times 300 mg (FIG. 9)): potentiates other antibiotics more than the 300 mg three times a day dosage regime | CRISS versus placebo group across all concomitant antibiotics examined ([2]; 450 dose regimen, including 450 BID, post-hoc): non-significant improvements | CRISS versus placebo, patients not receiving azithromycin ([2]; across all cysteamine treatment regimens, post-hoc): significantly better than placebo | CRISS score at day 14 compared with placebo ([2]; other 450 doses (qd, tid)): non-significant reductions | Blood Leukocyte Count, D 14 mean (blood leukocytes; 150 mg tid): 9.71e+09 L⁻¹ | Blood Leukocyte Count, D 14 Δbaseline mean (blood leukocytes; 150 mg tid): -2.64e+09 L⁻¹ | Blood Leukocyte Count, D 14 Δ −placebo mean (blood leukocytes; 150 mg tid, p 1.00): 0 L⁻¹ | Blood Leukocyte Count, D 14 mean (blood leukocytes; 300 mg tid): 1.055e+10 L⁻¹ | Blood Leukocyte Count, D 14 Δbaseline mean (blood leukocytes; 300 mg tid): -1.9e+08 L⁻¹ | Blood Leukocyte Count, D 14 Δ −placebo mean (blood leukocytes; 300 mg tid, p 0.84): -2.4e+08 L⁻¹ | Blood Leukocyte Count, D 14 mean (blood leukocytes; 450 mg bid): 7.45e+09 L⁻¹ | Blood Leukocyte Count, D 14 Δbaseline mean (blood leukocytes; 450 mg bid): -3.41e+09 L⁻¹ | Blood Leukocyte Count, D 14 Δ −placebo mean (blood leukocytes; 450 mg bid, p 0.033): -2.43e+09 L⁻¹ | Blood Leukocyte Count, D 14 mean (blood leukocytes; 450 mg qd): 8.52e+09 L⁻¹ | Blood Leukocyte Count, D 14 Δbaseline mean (blood leukocytes; 450 mg qd): -2.22e+09 L⁻¹ | Blood Leukocyte Count, D 14 Δ −placebo mean (blood leukocytes; 450 mg qd, p 0.22): -1.49e+09 L⁻¹ | Blood Leukocyte Count, D 14 mean (blood leukocytes; 450 mg tid): 9.79e+09 L⁻¹ | Blood Leukocyte Count, D 14 Δbaseline mean (blood leukocytes; 450 mg tid): -4.06e+09 L⁻¹ | Blood Leukocyte Count, D 14 Δ −placebo mean (blood leukocytes; 450 mg tid, p 0.33): -1.11e+09 L⁻¹ | CFQR PROM score [3]: non-significant improvements | Production of alginate/extracellular polysaccharide in mucoid strains ([4]; exposure to cysteamine): inhibited | Alginate production ([4]; isolate B, day 14 of 450 mg BID cysteamine, 120 h growth in MHB at 37° C., day 0 isolate A 19.93 μg/ml, mucoid): 4.47 µg/mL | Colony phenotype of isolate ([4]; isolate B, day 14 of 450 mg BID cysteamine, day 0 isolate mucoid): dry colonies | Zone of clearance and sensitivity to sulphonamides ([5]; Müller Hinton agar containing cysteamine compared with agar alone): significant increase | Sensitivity to various antibiotics in combination with cysteamine ([5]; in vitro, patient isolate (FIG. 8)): increased sensitivity | Time to discharge from hospital (CF patient): 3 days | Safety and tolerability [6]: safe and reasonably well tolerated
